# According to patent publication US4882171A, “Vanadium-peroxide compositions as insulin mimickers” (priority 1986, dated 1989):
# How the values were obtained:
# [1] = Blood glucose in live rats after jugular vein injection (Example 6A); format: in vivo, rat; conditions: 0.2 to 0.4 ml of 1 mM solution, 200 g rats
# Experimental: In live rat studies vanadate (sodium salt) and the reaction mixture (phosphate-buffered saline containing vanadate and H2 O2 at neutral pH) was injected into 200 g rats via the internal jugular vein. […] This decrease was short-lived.
# [2] = Blood sugar in intact rats after jugular vein injection (Example 6B); format: in vivo, rat (male Sprague-Dawley); conditions: 0.5 ml of 2 mM vanadate
# Experimental: Solutions were injected into the jugular vein and blood samples were removed for determination of blood sugar by a standard glucose oxidase procedure.
# [3] = system: rat adipocytes (lipolysis); test: Lipolysis in rat adipocytes (Example 4); format: cell-based; conditions: vanadate with H2O2 10^-3 M, or vanadate alone
# [4] = system: 125I-IGF-2 binding, rat adipocytes; test: IGF-2 binding to rat adipocytes (Example 1, Table 1); format: cell-based; conditions: insulin 10 ng/ml, vanadate 1 mM and/or H2O2 1 mM, 15 min preincubation at 37° C.; control = 125I-IGF-2 alone
# [5] = system: rat adipocytes (lipogenesis); test: Lipogenesis in rat adipocytes (Example 4); format: cell-based; conditions: 10^-7 M vanadate with H2O2 10^-3 M equals vanadate alone at 10^-4 M
# [6] = system: adipocytes (protein synthesis); test: Protein synthesis in adipocytes, 3H-leucine incorporation (Example 5, Table 2); format: cell-based
# Experimental: Adipocytes were isolated by collagenase digestion and protein synthesis was assessed by the incorporation 3,4,5-^3 H-leucine (0.5 uCi/ml) over 1 h at 37° C. into trichloroacetic acid (10%) precipitable material.
# This was followed by a 1 h incubation with radiolabelled leucine. The reaction was terminated by the addition of cold TCA and centrifugation. The pellet was counted in a beta counter.
# [7] = system: 125I-IGF-II binding, rat adipocytes; test: Binding of labelled IGF-II to rat adipocytes, vanadate dose response (Example 2, FIG. 2); format: cell-based; conditions: vanadate alone; % of that seen with maximal doses of insulin
# Experimental: Determination of ^125 I-IGF-II binding (shown in FIG. 2) is achieved by incubating adipocytes with vanadate (white circles on Figure); hydrogen peroxide (1mM) plus vanadate (black circles); and insulin (black squares) for 15 minutes at 37 C. Each value shown is the mean ± S.E. (Standard Error) of three separate experiments.
# [8] = system: insulin receptor tyrosine kinase; test: Insulin receptor tyrosine kinase activation in adipocytes, 32P incorporation into poly (Glu, Tyr) (Example 3, FIG. 3); format: cell-based, rat
# [9] = system: 125I-IGF-2 cell surface binding, fat cell; conditions: vanadate alone; cited from earlier work
# diabetic rats = conditions: drinking water; cited from earlier work
Compound,effect on blood glucose (in words) [1],effect in lowering blood sugar (in words) [2],vanadate concentration inhibiting lipolysis maximally [3],"IGF-2 binding, % of control [4]",vanadate concentration giving equal augmentation of lipogenesis [5],"Leucine Incorp (% of control ± S.E.) ([6]; 2 uM, 2 h at 37° C., then 1 h radiolabelled leucine, n=2)","Leucine Incorp (% of control ± S.E.) ([6]; 10 uM, 2 h at 37° C., then 1 h radiolabelled leucine, n=6)","Leucine Incorp (% of control ± S.E.) ([6]; 50 uM, 2 h at 37° C., then 1 h radiolabelled leucine, n=5)","Leucine Incorp (% of control ± S.E.) ([6]; 100 uM (H2O2 concentration), 2 h at 37° C., then 1 h radiolabelled leucine, n=4-5)","stimulation of leucine incorporation (in words) ([6]; vanadate alone, 2-100 uM)",maximal effect relative to maximal doses of insulin (IGF-II binding) [7],augmentation of kinase activity over control ([8]; 10^-3 M alone),insulin mimicking action (in words) [9],effect on blood glucose (in words) (diabetic rats),effect on cardiac performance (in words) (diabetic rats),"activity at 100 µM ([6]; Adipocyte, 100 uM (H2O2 concentration), 2 h at 37° C., then 1 h radiolabelled leucine, n=4-5, read-out: Leucine Incorp (% of control ± S.E.))",augmentation of kinase activity over control ([8]; insulin 10 ng/ml alone)
"[O]=[V]([O-])([O-])[O-] [Vanadate, vanadate]",no effect,no effect at all,10^-3 M,172 ± 10 % of control,10^-4 M,101 ± 5.0 % of control,104 ± 3.5 % of control,105 ± 6.0 % of control,107 ± 8.0 % of control,does not significantly stimulate leucine incorporation,about 60%,32%,weak mimicker of insulin action,lower blood glucose,improve cardiac performance,,
"OO [H2 O2, hydrogen peroxide]",,,,138 ± 12 % of control,,,,,,,,,,,,105 ± 4.7%,
Insulin: insulin,,,,,,,,,,,,,,,,,349%
